Assay results as given in PMC6009985, “Structure–activity relationship investigation of benzamide and picolinamide derivatives containing dimethylamine side chain as acetylcholinesterase inhibitors” (Journal of Enzyme Inhibition and Medicinal Chemistry, 2017).

Legend:
[1] = biological target: BChE (Homo sapiens, UniProt P06276); assay: biochemical; details: Ellman method, 30 °C, 25 min, pH 8.0; mean ± SD
Protocol: (§1) AChE/BChE activity assays were carried out by Ellman method with slight modification. Each compound was dissolved in Tween 80 and diluted with water to various concentrations immediately before use. The assay solution which contained 40 μL AChE/BChE, 100 μL acetylthiocholine iodide/S-butyrylthiocholine iodide, 2.76 ml Na2HPO4/NaH2PO4 buffer (pH 8.0, 0.1 M), and 100 μL tested compound solution with different concentrations were incubated at 30 °C for 25 min. Then, the reaction was terminated with 100 μL 20% sodium dodecylsulphate (SDS), then 100 μL 10 mM […] (DTNB) as chromogenic agent was added into the mixture. […] The IC50 values were calculated by Bliss method and expressed as Mean ± SD of the replicates.

[2] = biological target: T1, AChE (Homo sapiens, UniProt P22303); assay: biochemical; details: for IC50: Ellman method, 30 °C, 25 min, pH 8.0, mean ± SD; for Selectivity for AChE, IC50 (BChE)/IC50 (AChE): ratio IC50 (BChE)/IC50 (AChE)
Protocol: as §1

[3] = Octanol/buffer partition coefficient by shake flask method; format: physicochemical; details: octanol/buffer (PBS) pH 7.4, shake-flask, 37 °C, HPLC; for logP: octanol/phosphate buffer solution (PBS)
Protocol: The aqueous phase was replaced by phosphate buffer solution (PBS, pH = 7.4). The assay mixture containing tested compounds was shaken at 37 °C over night and then centrifuged at 2000 rpm for 20 min, followed by the analysis with HPLC. […] Experiments were conducted in triplicate and log p values were calculated.

[4] = biological target: T1, AChE; assay: Kinetic study of AChE inhibition (Lineweaver-Burk); format: biochemical
Protocol: Kinetic characterisation of AChE/BChE was performed by a modified method previous reported. Compound 7a was pre-incubated with the enzyme at 30 °C, then 100 µL acetylthiocholine iodide including five concentrations was added into the assay mixture and kinetic characterisation was conducted spectrometrically at 412 nm. Additionally, the parallel control experiment was made without compound 7a in the mixture.
Compound 7a was selected for kinetic studies. The linear Lineweaver–Burk equation of the Michaelis–Menten was applied to evaluate the inhibition profile. The analysis of the steady-state inhibition data of compound 7a was shown in Supplement data: Table 2.

Chain of BChE (P06276 29-602): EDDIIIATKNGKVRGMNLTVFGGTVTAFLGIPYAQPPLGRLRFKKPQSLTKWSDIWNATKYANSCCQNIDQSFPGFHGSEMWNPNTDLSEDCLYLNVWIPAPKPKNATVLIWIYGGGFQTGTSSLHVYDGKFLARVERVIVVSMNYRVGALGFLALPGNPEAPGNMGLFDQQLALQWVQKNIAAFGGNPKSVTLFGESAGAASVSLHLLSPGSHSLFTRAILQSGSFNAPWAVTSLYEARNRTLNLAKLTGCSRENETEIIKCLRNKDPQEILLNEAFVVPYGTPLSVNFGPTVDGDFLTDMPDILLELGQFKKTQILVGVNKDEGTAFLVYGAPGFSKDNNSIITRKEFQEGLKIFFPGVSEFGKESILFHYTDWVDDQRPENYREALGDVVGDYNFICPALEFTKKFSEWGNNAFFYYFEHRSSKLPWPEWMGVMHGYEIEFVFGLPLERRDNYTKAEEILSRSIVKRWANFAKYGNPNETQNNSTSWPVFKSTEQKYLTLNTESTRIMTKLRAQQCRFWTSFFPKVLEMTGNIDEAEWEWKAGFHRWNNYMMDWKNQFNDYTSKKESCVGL
T1 sequence (P22303 32-614): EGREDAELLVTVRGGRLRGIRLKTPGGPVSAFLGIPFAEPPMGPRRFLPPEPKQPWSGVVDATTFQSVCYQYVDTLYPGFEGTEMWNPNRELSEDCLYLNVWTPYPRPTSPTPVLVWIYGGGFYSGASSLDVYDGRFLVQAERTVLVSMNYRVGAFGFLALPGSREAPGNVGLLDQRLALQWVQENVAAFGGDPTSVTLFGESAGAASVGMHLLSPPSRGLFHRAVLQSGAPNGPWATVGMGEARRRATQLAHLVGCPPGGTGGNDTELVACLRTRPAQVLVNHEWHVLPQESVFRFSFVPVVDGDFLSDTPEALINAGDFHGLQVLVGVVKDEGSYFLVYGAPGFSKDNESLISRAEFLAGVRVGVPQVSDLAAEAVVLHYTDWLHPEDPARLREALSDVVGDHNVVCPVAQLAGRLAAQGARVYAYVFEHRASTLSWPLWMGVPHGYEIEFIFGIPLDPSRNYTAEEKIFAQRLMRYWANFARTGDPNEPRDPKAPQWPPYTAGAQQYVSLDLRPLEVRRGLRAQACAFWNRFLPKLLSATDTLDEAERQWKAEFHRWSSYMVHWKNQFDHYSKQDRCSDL

Compound | IC50 [1] [µM] | IC50 [2] [µM] | Selectivity for AChE, IC50 (BChE)/IC50 (AChE) [2] | Log p [3] | logP [3] | Vmax ([4]; AChE, 0.85 µM compound 7a) | Vmax ([4]; AChE, 1.70 µM compound 7a) | Vmax ([4]; AChE, 3.41 µM compound 7a) | non-competitive constant (Ki') ([4]; AChE, Lineweaver-Burk analysis) [µM] | Ki ([4]; AChE, Lineweaver-Burk analysis, read-out: competitive inhibition constant (Ki)) [µM] | type of inhibition against AChE ([4]; Lineweaver-Burk analysis)
CN(C)CCOc1ccc(NC(=O)c2ccccc2)cc1 [Compound 4a] | 143 ± 5.56 | 18.2 ± 1.16 | 7.84 | 1.12 |  |  |  |  |  |  | 
CN(C)CCOc1cccc(NC(=O)c2ccccc2)c1 [Compound 4b] | 20.9 ± 1.61 | 75.8 ± 4.13 | 0.276 |  | 1.18 |  |  |  |  |  | 
CN(C)CCOc1ccccc1NC(=O)c1ccccc1 [Compound 4c] | 18 ± 1 | > 500 | <0.0359 |  | 1.23 |  |  |  |  |  | 
CN(C)CCOc1ccc(NC(=O)c2ccncc2)cc1 [Compound 7a] | 247 ± 7.54 | 2.49 ± 0.19 | 99.4 |  | 1.26 | 0.017 ΔAmin-1 | 0.014 ΔAmin-1 | 0.012 ΔAmin-1 | 3.28 | 4.69 | mixed-type inhibition
CN(C)CCOc1cccc(NC(=O)c2ccncc2)c1 [Compound 7b] | 48.6 ± 2.23 | 38.4 ± 2.19 | 1.26 |  | 1.31 |  |  |  |  |  | 
CN(C)CCOc1ccccc1NC(=O)c1ccncc1 [Compound 7c] | 44.6 ± 1.16 | > 500 | <0.0892 |  | 1.37 |  |  |  |  |  | 
CN(C)CCOc1ccc(NC(=O)c2cccnc2)cc1 [Compound 7d] | 246.5 ± 1.85 | 5.76 ± 0.41 | 42.80 |  | 1.33 |  |  |  |  |  | 
CN(C)CCOc1cccc(NC(=O)c2cccnc2)c1 [Compound 7e] | 22.1 ± 1.01 | 13.2 ± 1.73 | 1.67 |  | 1.37 |  |  |  |  |  | 
CN(C)CCOc1ccccc1NC(=O)c1cccnc1 [Compound 7f] | 33.4 ± 1.37 | 75.8 ± 0.84 | 0.441 |  | 1.42 |  |  |  |  |  | 
CN(C)CCOc1ccc(NC(=O)c2ccccn2)cc1 [Compound 7g] | 114 ± 7.73 | 4.68 ± 0.3 | 24.4 |  | 1.14 |  |  |  |  |  | 
CN(C)CCOc1cccc(NC(=O)c2ccccn2)c1 [Compound 7h] | 35.9 ± 0.94 | 73 ± 3.03 | 0.492 |  | 1.37 |  |  |  |  |  | 
CN(C)CCOc1ccccc1NC(=O)c1ccccn1 [Compound 7i] | 27.4 ± 2.31 | > 500 | <0.0549 |  | 1.18 |  |  |  |  |  | 
